From patent publication US20130287688A1, “NOVEL COMPOSITIONS AND USES OF ANTI-HYPERTENSION AGENTS FOR CANCER THERAPY” (XTUIT PHARMACEUTICALS, INC., priority 2010, published 2013) come the findings set out here.

For series [1], the system named is L3.6PL orthotopic pancreatic tumors. Briefly: DOXIL treatment and tumor growth delay. Type of series: in vivo, SCID mice. From the text: One week after the DOXIL injection, the tumors were resected and measured.
The next series relates to E0771 tumors. As to the kind of experiment: Hypoxic fraction by pimonidazole staining. On the set-up: species or system mice. To be noted: mouse, in vivo. How it is done: Losartan decreases the hypoxic fraction in E0771 tumors (P=0.027, Student's t-test) due to the increase in oxygen delivery.
Oxygenation was then studied using phosphorescence quenching microscopy. […] This decrease in tumor hypoxia was confirmed by using pimonidazole staining (FIGS. 29D and 30). To determine if losartan also increases nanomedicine delivery, which is dependent on both vascular supply and penetration across vessel walls into tumor tissue, nanoparticle penetration was measured using intravital multiphoton microscopy. Nanoparticle penetration rates were quantified as transvascular mass flux per unit vascular surface area and transvascular concentration difference, termed as the effective permeability. […] Penetration rates are largely dependent on fluid flow through the viscoelastic and tortuous tumor interstitium, which is a function of interstitial hydraulic conductivity. It was determined that losartan also increases the hydraulic conductivity of E0771 tumors (FIG. 31), likely through its anti-matrix effects, and a mathematical model (Chauhan V P, et al., Nature Nanotechnology. 2012; advance online publication) was used to confirm that this can improve the penetration rate of all sizes of nanomedicines (FIG. 32). Thus, “microenvironmental normalization” with ARBs and ACE-Is increases the delivery of oxygen and all sizes of therapeutics to tumors. […]

The test system of another series is HSTS26T tumors. As to the kind of experiment: Necrosis 21 days after HSV injection. Type of series: in vivo, mice. The conditions noted are these: losartan prior to HSV injection. From the text:
(§1) Hematoxylin staining of intact tumor areas, necrosis, and HSV immunostaining is shown. Necrotic regions are indicated by black arrows. Even though there was no detectable difference in necrotic area between HSTS26T and MU89, necrosis is confined to specific regions in MU89 while there is necrotic tissue (bounded by HSV immunostaining) throughout HSTS26T tumors. Scale bar=2 mm.
(§2) To determine the relationship between virus infection, necrosis and collagen structure 21 days after the HSV injection, consecutive paraffin sections were stained with either a polyclonal HSV-1 antibody (DAKO, Glostrup Denmark) or a collagen I antibody (LF-67). For collagen I staining in paraffin sections, slides were treated with 3% hydrogen peroxide prior to antigen retrieval with Target Retrieval Solution, pH 9 (DAKO, Carpinteria, Calif.). The slides were then treated with 0.05% trypsin before the primary collagen I antibody was applied at a dilution of 1:500. Sections stained with collagen I or HSV were imaged with a light microscope.

For another series, the system named is Mu89 tumors. As to the kind of experiment: Necrosis 21 days after HSV injection. Format: in vivo, mice. The conditions noted are these: losartan prior to HSV injection.
Text: as §1, §2

The next series relates to E0771 breast tumors. Briefly: Interstitial hydraulic conductivity of excised tumor tissue. To be noted: 40 mg/kg i.p. daily, 6 days. Format: in vivo, mice. As for the experimental part:
FIG. 31 is a bar graph showing that angiotensin inhibitors increase fluid flow in tumors. Interstitial hydraulic conductivity was measured by the flow rate of media through freshly excised tumor tissue. […] Animal number n=6.
Oxygenation was then studied using phosphorescence quenching microscopy. […] This decrease in tumor hypoxia was confirmed by using pimonidazole staining (FIGS. 29D and 30). To determine if losartan also increases nanomedicine delivery, which is dependent on both vascular supply and penetration across vessel walls into tumor tissue, nanoparticle penetration was measured using intravital multiphoton microscopy. Nanoparticle penetration rates were quantified as transvascular mass flux per unit vascular surface area and transvascular concentration difference, termed as the effective permeability. […] Penetration rates are largely dependent on fluid flow through the viscoelastic and tortuous tumor interstitium, which is a function of interstitial hydraulic conductivity. It was determined that losartan also increases the hydraulic conductivity of E0771 tumors (FIG. 31), likely through its anti-matrix effects, and a mathematical model (Chauhan V P, et al., Nature Nanotechnology. 2012; advance online publication) was used to confirm that this can improve the penetration rate of all sizes of nanomedicines (FIG. 32). […]

Regarding `CCCCc1nc(Cl)c(CO)n1Cc1ccc(-c2ccccc2-c2nn[nH]n2)cc1` [losartan], in series [1] (agent alone (losartan 20 mg/kg/day or DOXIL 4 mg/kg i.v.), after 7 days), the mean tumor weight entry was “did not affect”. The “tumor size vs DOXIL alone” value in series [1] (losartan 20 mg/kg/day combined with DOXIL 4 mg/kg i.v.) is “significantly smaller”. Besides, the “growth of pancreatic tumors or weight of treated mice” value in series [1] (losartan alone) is on record as “did not affect”. For the same molecule, the “reduction of tumor sizes compared to DOXIL treatment alone” value in series [1] (losartan combined with DOXIL) was 50%. Further, the hypoxic fraction result with E0771 tumors is listed as “decreases”. In addition, the necrosis in tumors entry in the series with HSTS26T tumors and in the series on Mu89 tumors was “two-fold increase” throughout. Moreover, the interstitial hydraulic conductivity entry in the series on E0771 breast tumors was “large increase”.
